Results as given in patent publication EP0000804A1, “Process for the preparation of ethers of clavulanic acid” (BEECHAM GROUP PLC, priority 1977, dated 1979).
In brackets after ≈: the same amount, converted by molar mass.

Tests used:
Assay in all cases: Minimum inhibitory concentration (MIC) in vitro, β-lactamase inhibitory activity demonstration
Assay type in all cases: cell-based
E. coli JT39 = conditions: Escherichia coli, compound alone, no ampicillin, read-out: MIC EC, Compound alone
Experimental: (§1) The minimum inhibitory concentrations (MIC) of certain compounds of this invention and of ampicillin, alone or in the presence of compounds of the invention, were determined in vitro for a range of micro-organisms.

Klebsiella aerogenes E70 = conditions: compound alone, no ampicillin, read-out: MIC KA, Compound alone
Experimental: as §1

Proteus mirabilis C889 = conditions: compound alone, no ampicillin
Experimental: as §1

[1] = tested on: Staphylococcus aureus Russell; conditions: compound alone, no ampicillin, read-out: MIC SAR, Compound alone
Experimental: as §1

| Compound | MIC (E. coli JT39) | MIC (Klebsiella aerogenes E70) | MIC (Proteus mirabilis C889) | MIC [1] |
| --- | --- | --- | --- | --- |
| C=COC/C=C1\O[C@@H]2CC(=O)N2[C@H]1C(=O)OC [Example 8, Methyl 9-0-vinylclavulanate] | 500 µg/mL (≈ 2090 µM) | 500 µg/mL (≈ 2090 µM) | 250 µg/mL (≈ 1050 µM) | 125 µg/mL (≈ 523 µM) |
| C=COC/C=C1\O[C@@H]2CC(=O)N2[C@H]1C(=O)O [Example 10, Lithium 9-0-vinyl-clavulanate] | 31.2 µg/mL (≈ 139 µM) | 31.2 µg/mL (≈ 139 µM) | 62.5 µg/mL (≈ 278 µM) | 15.6 µg/mL (≈ 69.3 µM) |
